Test results as given in patent US10266537B2, “3-acetylenyl-pyrazole-pyrimidine derivative, and preparation method therefor and uses thereof” (Si Chuan University, priority 2015, dated 2019).
Where two headings read alike, the source gives them in different places.

Columns and labels:
[1] = biological target: c-Src(T341M) (Homo sapiens (Human), UniProt P12931, T341M); assay: Kinase inhibition assay (KinaseProfiler, 33P-ATP); format: biochemical; settings: for IC50: c-Src(T341M), ATP at Km
[2] = biological target: c-RAF (Homo sapiens (Human), UniProt P04049); assay: Kinase inhibition assay (KinaseProfiler, 33P-ATP); format: biochemical; settings: for remaining activity at 10 µM: c-RAF(h), read-out: The percentage of the remaining active protein
[3] = biological target: Blk (Homo sapiens (Human), UniProt P51451); assay: Kinase inhibition assay (KinaseProfiler, 33P-ATP); format: biochemical; settings: for IC50: Blk, ATP at Km; for remaining activity at 10 µM: Blk(h), read-out: The percentage of the remaining active protein
[4] = biological target: EphB2 (Homo sapiens (Human), UniProt P29323); assay: Kinase inhibition assay (KinaseProfiler, 33P-ATP); format: biochemical; settings: for remaining activity at 10 µM: EphB2(h), read-out: The percentage of the remaining active protein; for IC50: EphB2, ATP at Km
[5] = biological target: DDR2 (Homo sapiens (Human), UniProt Q16832); assay: Kinase inhibition assay (KinaseProfiler, 33P-ATP); format: biochemical; settings: for IC50: DDR2, ATP at Km
[6] = biological target: Btk (Homo sapiens (Human), UniProt Q06187); assay: Kinase inhibition assay (KinaseProfiler, 33P-ATP); format: biochemical; settings: for remaining activity at 10 µM: BTK(h), read-out: The percentage of the remaining active protein; for IC50: Btk, ATP at Km
[7] = biological target: IKKβ (Homo sapiens (Human), UniProt O14920); assay: Kinase inhibition assay (KinaseProfiler, 33P-ATP); format: biochemical; settings: for remaining activity at 10 µM: IKKβ(h), read-out: The percentage of the remaining active protein
[8] = biological target: Axl (Homo sapiens (Human), UniProt P30530); assay: Kinase inhibition assay (KinaseProfiler, 33P-ATP); format: biochemical; settings: for remaining activity at 10 µM: Axl(h), read-out: The percentage of the remaining active protein
[9] = biological target: PDGFRα (Homo sapiens (Human), UniProt P16234); assay: Kinase inhibition assay (KinaseProfiler, 33P-ATP); format: biochemical; settings: for remaining activity at 10 µM: PDGFRα(h), read-out: The percentage of the remaining active protein; for IC50: PDGFRα, ATP at Km
[10] = biological target: EGFR (Homo sapiens (Human), UniProt P00533); assay: Kinase inhibition assay (KinaseProfiler, 33P-ATP); format: biochemical; settings: for remaining activity at 10 µM: EGFR(h), read-out: The percentage of the remaining active protein
[11] = biological target: Tie2 (Homo sapiens (Human), UniProt Q02763); assay: Kinase inhibition assay (KinaseProfiler, 33P-ATP); format: biochemical; settings: Tie2 (h), read-out: The percentage of the remaining active protein
[12] = biological target: ARK5(h) (Homo sapiens (Human), UniProt O60285); assay: Kinase inhibition assay (KinaseProfiler, 33P-ATP); format: biochemical; settings: read-out: The percentage of the remaining active protein
[13] = biological target: CHK1(h) (Homo sapiens (Human), UniProt O14757); assay: Kinase inhibition assay (KinaseProfiler, 33P-ATP); format: biochemical; settings: read-out: The percentage of the remaining active protein
[14] = biological target: FAK(h) (Homo sapiens (Human), UniProt Q05397); assay: Kinase inhibition assay (KinaseProfiler, 33P-ATP); format: biochemical; settings: read-out: The percentage of the remaining active protein
[15] = biological target: Fms(h) (Homo sapiens (Human), UniProt P07333); assay: Kinase inhibition assay (KinaseProfiler, 33P-ATP); format: biochemical; settings: read-out: The percentage of the remaining active protein
[16] = biological target: Itk(h) (Homo sapiens (Human), UniProt Q08881); assay: Kinase inhibition assay (KinaseProfiler, 33P-ATP); format: biochemical; settings: read-out: The percentage of the remaining active protein
[17] = biological target: JNK1α1(h) (Homo sapiens (Human), UniProt P45983); assay: Kinase inhibition assay (KinaseProfiler, 33P-ATP); format: biochemical; settings: read-out: The percentage of the remaining active protein
[18] = biological target: Met(h) (Homo sapiens (Human), UniProt P08581); assay: Kinase inhibition assay (KinaseProfiler, 33P-ATP); format: biochemical; settings: read-out: The percentage of the remaining active protein
[19] = biological target: mTOR(h) (Homo sapiens (Human), UniProt P42345); assay: Kinase inhibition assay (KinaseProfiler, 33P-ATP); format: biochemical; settings: read-out: The percentage of the remaining active protein
[20] = biological target: PAK1(h) (Homo sapiens (Human), UniProt Q13153); assay: Kinase inhibition assay (KinaseProfiler, 33P-ATP); format: biochemical; settings: read-out: The percentage of the remaining active protein
[21] = biological target: Pim-1(h) (Homo sapiens (Human), UniProt P11309); assay: Kinase inhibition assay (KinaseProfiler, 33P-ATP); format: biochemical; settings: read-out: The percentage of the remaining active protein
[22] = biological target: RIPK2(h) (Homo sapiens (Human), UniProt O43353); assay: Kinase inhibition assay (KinaseProfiler, 33P-ATP); format: biochemical; settings: read-out: The percentage of the remaining active protein
[23] = tested on: CFPAC; assay: Cell proliferation inhibition assay (MTT); format: cell-based; settings: Homo sapiens, read-out: Proliferation inhibitory activity IC50
Method: (§1) The cells were seeded in 96-well plates with 200 μL of cell suspension per well and incubated overnight in a cell culture medium with a cell concentration of 1 2×10^4 cells/mL. The next day, the supernatant was discarded (the suspension cell was centrifuged before it) and the cells were treated with gradient concentrations of the test compound, respectively. […] After 72 hours, add 20 μL of MTT reagent at a concentration of 5 mg/mL per well. After incubation for 2-4 h, the supernatant was discarded and 150 μL of DMSO was added to each well. […] Relative cell proliferation inhibition rate=([MUT]-[MUT])×100%/[MUT]. The experiment was repeated at least 3 times. Experimental data were expressed as mean, data statistics using t test, P<0.05 for the difference was statistically significant.

[24] = tested on: A549; assay: Cell proliferation inhibition assay (MTT); format: cell-based; settings: Homo sapiens, read-out: Proliferation inhibitory activity IC50
Method: as §1

[25] = tested on: BT474; assay: Cell proliferation inhibition assay (MTT); format: cell-based; settings: Homo sapiens, read-out: Proliferation inhibitory activity IC50
Method: as §1

[26] = tested on: HCT116; assay: Cell proliferation inhibition assay (MTT); format: cell-based; settings: Homo sapiens, read-out: Proliferation inhibitory activity IC50
Method: as §1

[27] = tested on: A375; assay: Cell proliferation inhibition assay (MTT); format: cell-based; settings: Homo sapiens, read-out: Proliferation inhibitory activity IC50
Method: as §1

[28] = biological target: B-Raf(V600E) (Homo sapiens (Human), UniProt P15056, V600E); assay: Kinase inhibition assay (KinaseProfiler, 33P-ATP); settings: ATP at Km
[29] = biological target: EphA2 (Homo sapiens (Human), UniProt P29317); assay: Kinase inhibition assay (KinaseProfiler, 33P-ATP)
[30] = biological target: EphA1(h) (Homo sapiens (Human), UniProt P21709); assay: Kinase inhibition assay (KinaseProfiler, 33P-ATP); format: biochemical; settings: read-out: The percentage of the remaining active protein
[31] = tested on: plc/prf/5; assay: Cell proliferation inhibition assay (MTT); format: cell-based; settings: Homo sapiens, 72 hours, read-out: Proliferation inhibitory activity IC50
Method: as §1

[32] = biological target: MEK1(h) (Homo sapiens (Human), UniProt Q02750); assay: Kinase inhibition assay (KinaseProfiler, 33P-ATP); settings: read-out: The percentage of the remaining active protein

Itk(h), sequence (Q08881 whole entry): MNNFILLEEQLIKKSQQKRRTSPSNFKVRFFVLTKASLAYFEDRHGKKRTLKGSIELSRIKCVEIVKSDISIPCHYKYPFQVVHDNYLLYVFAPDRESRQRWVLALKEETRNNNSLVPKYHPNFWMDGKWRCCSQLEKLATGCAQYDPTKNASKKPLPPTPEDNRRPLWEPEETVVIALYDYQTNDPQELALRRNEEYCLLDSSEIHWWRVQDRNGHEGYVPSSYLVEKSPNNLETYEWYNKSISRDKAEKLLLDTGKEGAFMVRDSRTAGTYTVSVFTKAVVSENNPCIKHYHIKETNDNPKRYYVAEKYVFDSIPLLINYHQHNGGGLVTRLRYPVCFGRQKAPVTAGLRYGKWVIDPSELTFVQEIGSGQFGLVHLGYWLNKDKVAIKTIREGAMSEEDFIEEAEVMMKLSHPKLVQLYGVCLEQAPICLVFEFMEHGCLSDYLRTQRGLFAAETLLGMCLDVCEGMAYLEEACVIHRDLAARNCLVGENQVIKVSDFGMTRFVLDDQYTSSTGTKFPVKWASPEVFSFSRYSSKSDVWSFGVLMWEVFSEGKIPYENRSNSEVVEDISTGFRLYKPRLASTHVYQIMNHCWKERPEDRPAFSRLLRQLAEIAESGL
Met(h), sequence (P08581 25-1390): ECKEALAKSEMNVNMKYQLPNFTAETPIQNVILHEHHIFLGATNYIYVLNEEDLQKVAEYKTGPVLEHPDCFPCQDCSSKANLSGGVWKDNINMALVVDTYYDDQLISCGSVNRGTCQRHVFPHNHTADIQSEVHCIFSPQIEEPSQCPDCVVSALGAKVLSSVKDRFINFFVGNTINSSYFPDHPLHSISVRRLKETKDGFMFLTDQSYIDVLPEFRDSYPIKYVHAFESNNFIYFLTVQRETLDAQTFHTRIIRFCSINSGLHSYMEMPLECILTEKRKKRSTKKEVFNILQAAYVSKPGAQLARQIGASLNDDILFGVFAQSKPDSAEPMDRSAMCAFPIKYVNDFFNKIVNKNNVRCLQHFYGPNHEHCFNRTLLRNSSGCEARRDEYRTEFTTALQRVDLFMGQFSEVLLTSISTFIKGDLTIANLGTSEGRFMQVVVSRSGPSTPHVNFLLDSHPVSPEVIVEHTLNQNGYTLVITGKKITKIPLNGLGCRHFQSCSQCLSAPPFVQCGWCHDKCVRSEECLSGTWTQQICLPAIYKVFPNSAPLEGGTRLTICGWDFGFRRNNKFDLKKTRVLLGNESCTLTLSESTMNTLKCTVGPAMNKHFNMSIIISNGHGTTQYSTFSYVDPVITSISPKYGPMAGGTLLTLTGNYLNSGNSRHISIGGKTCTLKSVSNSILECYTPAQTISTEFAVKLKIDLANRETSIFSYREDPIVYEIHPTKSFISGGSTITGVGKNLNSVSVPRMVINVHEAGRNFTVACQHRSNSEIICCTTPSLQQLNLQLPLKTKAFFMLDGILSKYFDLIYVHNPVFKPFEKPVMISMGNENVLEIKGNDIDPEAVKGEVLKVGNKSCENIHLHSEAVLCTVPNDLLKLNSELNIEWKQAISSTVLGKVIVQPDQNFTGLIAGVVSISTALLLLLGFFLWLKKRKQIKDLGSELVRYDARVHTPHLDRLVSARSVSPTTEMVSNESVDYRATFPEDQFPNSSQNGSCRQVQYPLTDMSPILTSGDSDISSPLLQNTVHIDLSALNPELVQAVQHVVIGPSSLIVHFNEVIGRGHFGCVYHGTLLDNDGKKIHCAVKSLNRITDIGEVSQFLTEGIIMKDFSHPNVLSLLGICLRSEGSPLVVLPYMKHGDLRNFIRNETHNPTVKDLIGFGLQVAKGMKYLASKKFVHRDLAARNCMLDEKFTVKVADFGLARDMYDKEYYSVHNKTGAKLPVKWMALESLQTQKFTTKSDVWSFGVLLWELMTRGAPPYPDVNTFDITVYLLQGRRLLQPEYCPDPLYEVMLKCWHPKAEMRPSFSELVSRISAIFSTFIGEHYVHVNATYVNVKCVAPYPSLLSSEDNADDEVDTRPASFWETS
Blk, sequence (P51451 whole entry): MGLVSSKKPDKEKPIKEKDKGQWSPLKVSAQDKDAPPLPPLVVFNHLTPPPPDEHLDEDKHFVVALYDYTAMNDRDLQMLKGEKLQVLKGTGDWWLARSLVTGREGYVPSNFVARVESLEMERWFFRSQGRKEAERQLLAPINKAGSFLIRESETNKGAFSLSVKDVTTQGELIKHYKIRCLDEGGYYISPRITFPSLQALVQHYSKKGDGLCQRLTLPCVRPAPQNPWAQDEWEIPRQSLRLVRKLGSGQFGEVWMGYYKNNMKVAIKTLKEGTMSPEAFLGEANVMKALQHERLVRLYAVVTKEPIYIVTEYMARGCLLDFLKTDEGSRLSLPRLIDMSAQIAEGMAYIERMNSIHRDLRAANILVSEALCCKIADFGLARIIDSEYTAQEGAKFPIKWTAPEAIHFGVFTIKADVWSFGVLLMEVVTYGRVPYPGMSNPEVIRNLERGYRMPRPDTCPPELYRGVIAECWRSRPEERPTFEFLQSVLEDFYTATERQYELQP
RIPK2(h), sequence (O43353 whole entry): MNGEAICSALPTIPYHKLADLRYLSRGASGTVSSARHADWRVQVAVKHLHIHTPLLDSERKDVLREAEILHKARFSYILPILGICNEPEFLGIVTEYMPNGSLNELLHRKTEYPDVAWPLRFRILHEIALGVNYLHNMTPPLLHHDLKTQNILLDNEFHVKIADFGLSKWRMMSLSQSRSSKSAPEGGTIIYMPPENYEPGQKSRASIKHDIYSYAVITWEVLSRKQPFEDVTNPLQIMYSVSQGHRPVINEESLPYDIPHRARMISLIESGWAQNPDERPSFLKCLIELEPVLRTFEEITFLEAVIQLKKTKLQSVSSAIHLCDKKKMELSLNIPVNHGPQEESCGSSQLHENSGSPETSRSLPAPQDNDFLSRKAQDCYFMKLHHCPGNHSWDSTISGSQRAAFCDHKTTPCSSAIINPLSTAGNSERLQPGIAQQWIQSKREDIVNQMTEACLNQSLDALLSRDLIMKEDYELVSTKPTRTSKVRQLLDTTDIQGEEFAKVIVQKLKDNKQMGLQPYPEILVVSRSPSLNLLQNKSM
Btk, sequence (Q06187 whole entry): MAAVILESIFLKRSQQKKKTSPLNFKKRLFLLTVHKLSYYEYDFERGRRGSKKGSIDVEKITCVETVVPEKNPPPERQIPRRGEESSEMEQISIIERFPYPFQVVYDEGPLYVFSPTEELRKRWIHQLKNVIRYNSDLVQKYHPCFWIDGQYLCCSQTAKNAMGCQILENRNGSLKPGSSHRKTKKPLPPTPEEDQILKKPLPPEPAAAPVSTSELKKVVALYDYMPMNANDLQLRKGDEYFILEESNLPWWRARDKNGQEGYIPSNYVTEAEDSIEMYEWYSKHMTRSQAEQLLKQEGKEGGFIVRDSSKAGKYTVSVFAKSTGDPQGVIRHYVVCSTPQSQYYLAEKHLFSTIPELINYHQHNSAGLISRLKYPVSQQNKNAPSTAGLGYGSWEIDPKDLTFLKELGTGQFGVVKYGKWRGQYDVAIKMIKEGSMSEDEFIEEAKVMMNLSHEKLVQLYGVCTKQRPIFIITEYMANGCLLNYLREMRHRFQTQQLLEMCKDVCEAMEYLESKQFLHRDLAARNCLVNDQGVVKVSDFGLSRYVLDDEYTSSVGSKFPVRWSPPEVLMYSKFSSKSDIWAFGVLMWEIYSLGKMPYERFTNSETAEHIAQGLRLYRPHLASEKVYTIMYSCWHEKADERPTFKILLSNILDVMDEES
DDR2, sequence (Q16832 22-855): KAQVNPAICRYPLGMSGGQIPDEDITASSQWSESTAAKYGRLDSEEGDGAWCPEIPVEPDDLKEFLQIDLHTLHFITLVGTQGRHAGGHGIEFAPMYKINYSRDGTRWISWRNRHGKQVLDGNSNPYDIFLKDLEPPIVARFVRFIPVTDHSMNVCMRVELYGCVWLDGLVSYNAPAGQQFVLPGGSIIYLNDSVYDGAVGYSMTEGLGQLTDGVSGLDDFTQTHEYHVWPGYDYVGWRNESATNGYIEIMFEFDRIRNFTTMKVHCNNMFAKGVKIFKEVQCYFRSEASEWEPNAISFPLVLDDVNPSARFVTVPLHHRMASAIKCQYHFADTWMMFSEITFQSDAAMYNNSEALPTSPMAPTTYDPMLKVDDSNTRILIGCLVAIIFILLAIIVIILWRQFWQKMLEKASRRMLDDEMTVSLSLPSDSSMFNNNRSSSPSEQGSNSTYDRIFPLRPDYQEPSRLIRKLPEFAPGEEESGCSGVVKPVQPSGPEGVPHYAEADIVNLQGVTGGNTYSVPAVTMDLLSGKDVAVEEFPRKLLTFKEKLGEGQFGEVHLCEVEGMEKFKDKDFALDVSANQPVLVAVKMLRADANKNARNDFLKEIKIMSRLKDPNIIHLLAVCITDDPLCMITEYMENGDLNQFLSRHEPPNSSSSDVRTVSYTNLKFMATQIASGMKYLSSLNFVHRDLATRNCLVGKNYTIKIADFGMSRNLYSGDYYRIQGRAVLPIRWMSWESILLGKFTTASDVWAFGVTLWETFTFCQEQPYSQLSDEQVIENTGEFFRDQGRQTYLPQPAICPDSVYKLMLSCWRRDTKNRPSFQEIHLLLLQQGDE
CHK1(h), sequence (O14757 whole entry): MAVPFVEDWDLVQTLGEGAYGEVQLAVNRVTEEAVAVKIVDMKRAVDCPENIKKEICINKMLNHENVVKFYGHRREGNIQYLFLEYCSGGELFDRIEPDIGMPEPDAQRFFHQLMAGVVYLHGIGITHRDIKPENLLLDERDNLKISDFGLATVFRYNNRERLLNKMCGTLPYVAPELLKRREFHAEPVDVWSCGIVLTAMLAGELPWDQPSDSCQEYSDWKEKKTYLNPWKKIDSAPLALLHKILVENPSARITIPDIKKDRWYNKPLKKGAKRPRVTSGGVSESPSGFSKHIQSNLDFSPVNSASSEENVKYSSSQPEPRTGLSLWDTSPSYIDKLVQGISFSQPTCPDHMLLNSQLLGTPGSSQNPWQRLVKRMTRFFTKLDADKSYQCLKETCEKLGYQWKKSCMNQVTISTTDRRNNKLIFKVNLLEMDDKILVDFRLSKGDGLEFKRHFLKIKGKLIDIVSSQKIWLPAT

CCn1nc(C#Cc2cc(C(=O)Nc3ccc(CN4CCN(C)CC4)c(C(F)(F)F)c3)ccc2C)c2c(N)ncnc21 [Compound 3]
IC50 [1]: 30 nM
remaining activity at 10 µM ([2]; compound at 10 μM): 5%
IC50 [3]: 19 nM
remaining activity at 10 µM ([4]; compound at 10 μM): 0%
IC50 [5]: 128 nM
remaining activity at 10 µM ([6]; compound at 10 μM): -3%
IC50 [6]: 67 nM
IC50 ([7]; IKKβ, ATP at Km): 164 nM
remaining activity at 10 µM ([8]; compound at 10 μM): -4%
IC50 ([8]; Axl, ATP at Km): 578 nM
remaining activity at 10 µM ([9]; compound at 10 μM): 5%
IC50 [9]: 890 nM
remaining activity at 10 µM ([10]; compound at 10 μM): 30%
IC50 ([10]; EGFR, ATP at Km): 3520 nM
remaining activity at 10 µM ([11]; compound at 10 μM): 3%
remaining activity at 10 µM ([12]; compound at 10 μM): 105%
remaining activity at 10 µM ([13]; compound at 10 μM): 91%
remaining activity at 10 µM ([14]; compound at 10 μM): 43%
remaining activity at 10 µM ([15]; compound at 10 μM): 0%
remaining activity at 10 µM ([16]; compound at 10 μM): 5%
remaining activity at 10 µM ([17]; compound at 10 μM): 66%
remaining activity at 10 µM ([18]; compound at 10 μM): 24%
remaining activity at 10 µM ([19]; compound at 10 μM): 96%
remaining activity at 10 µM ([20]; compound at 10 μM): 57%
remaining activity at 10 µM ([21]; compound at 10 μM): 46%
remaining activity at 10 µM ([22]; compound at 10 μM): 3%
IC50 ([23]; 72 h): 607 nM
IC50 ([24]; A549, 72 h): 199 nM
IC50 ([25]; BT-474, 72 h): > 10000 nM
IC50 ([26]; HCT-116, 72 h): 178 nM
IC50 ([27]; A-375, 72 h): 20.9 nM
IC50 [28]: 15 nM
IC50 ([29]; EphA2, ATP at Km): 16 nM

Cc1ccc(NC(=O)c2cccc(C(F)(F)F)c2)cc1C#Cc1nn(C2CCN(C)CC2)c2ncnc(N)c12 [Compound 31]
IC50 [1]: 3730 nM
remaining activity at 10 µM ([2]; compound at 10 μM): 2%
IC50 ([2]; c-RAF, ATP at Km): 19 nM
remaining activity at 10 µM ([3]; compound at 10 μM): -1%
IC50 [3]: 12 nM
remaining activity at 10 µM ([4]; compound at 10 μM): -1%
IC50 [4]: 10 nM
IC50 [5]: 74 nM
remaining activity at 10 µM ([6]; compound at 10 μM): -3%
IC50 [6]: 127 nM
remaining activity at 10 µM ([7]; compound at 10 μM): 42%
remaining activity at 10 µM ([8]; compound at 10 μM): 15%
remaining activity at 10 µM ([9]; compound at 10 μM): 3%
IC50 [9]: 396 nM
remaining activity at 10 µM ([10]; compound at 10 μM): 15%
remaining activity at 10 µM ([11]; compound at 10 μM): 3%
remaining activity at 10 µM ([12]; compound at 10 μM): 115%
remaining activity at 10 µM ([13]; compound at 10 μM): 100%
remaining activity at 10 µM ([30]; compound at 10 μM): 1%
remaining activity at 10 µM ([14]; compound at 10 μM): 26%
remaining activity at 10 µM ([15]; compound at 10 μM): 1%
remaining activity at 10 µM ([16]; compound at 10 μM): 92%
remaining activity at 10 µM ([17]; compound at 10 μM): 36%
remaining activity at 10 µM ([18]; compound at 10 μM): 102%
remaining activity at 10 µM ([19]; compound at 10 μM): 81%
remaining activity at 10 µM ([20]; compound at 10 μM): 36%
remaining activity at 10 µM ([21]; compound at 10 μM): 34%
remaining activity at 10 µM ([22]; compound at 10 μM): 15%
IC50 ([23]; CFPAC, MTT, 72 hours): 472 nM
IC50 ([24]; A549, MTT, 72 hours): 1420 nM
IC50 [31]: 3970 nM
IC50 ([25]; BT-474, BT474, MTT, 72 hours): > 10000 nM
IC50 ([26]; HCT-116, HCT116, MTT, 72 hours): 230 nM
IC50 ([27]; A-375, A375, MTT, 72 hours): 26.6 nM
IC50 [28]: 5 nM
IC50 [29]: 18 nM
remaining activity at 10 µM [32]: 52%

Cc1ccc(NC(=O)c2ccc(C)c(C(F)(F)F)c2)cc1C#Cc1nn([C@H]2CC[C@H](O)CC2)c2ncnc(N)c12 [Compound 93]
remaining activity at 10 µM ([1]; Src(T341M)(h), 10 μM, read-out: The percentage of the remaining active protein): 20%
remaining activity at 10 µM ([2]; 10 μM): 24%
remaining activity at 10 µM ([3]; 10 μM): 0%
remaining activity at 10 µM ([4]; 10 μM): -1%
IC50 [4]: 33 nM
remaining activity at 10 µM ([5]; DDR2(h), 10 μM, read-out: The percentage of the remaining active protein): 16%
IC50 [5]: 65 nM
remaining activity at 10 µM ([6]; 10 μM): 10%
remaining activity at 10 µM ([7]; 10 μM): 33%
remaining activity at 10 µM ([8]; 10 μM): 56%
remaining activity at 10 µM ([9]; 10 μM): 60%
remaining activity at 10 µM ([10]; 10 μM): 11%
remaining activity at 10 µM ([11]; 10 μM): 1%
remaining activity at 10 µM ([12]; 10 μM): 108%
remaining activity at 10 µM ([13]; 10 μM): 114%
remaining activity at 10 µM ([30]; 10 μM): 1%
remaining activity at 10 µM ([14]; 10 μM): 45%
remaining activity at 10 µM ([15]; 10 μM): 4%
remaining activity at 10 µM ([16]; 10 μM): 102%
remaining activity at 10 µM ([17]; 10 μM): 35%
remaining activity at 10 µM ([18]; 10 μM): 133%
remaining activity at 10 µM ([19]; 10 μM): 101%
remaining activity at 10 µM ([20]; 10 μM): 87%
remaining activity at 10 µM ([21]; 10 μM): 99%
remaining activity at 10 µM ([22]; 10 μM): 21%
IC50 ([24]; A549, MTT, 72 hours): > 10000 nM
IC50 [31]: ~10000 nM
IC50 ([25]; BT-474, BT474, MTT, 72 hours): > 10000 nM
IC50 ([27]; A-375, A375, MTT, 72 hours): ~30 nM
remaining activity at 10 µM ([29]; read-out: The percentage of the remaining active protein): -3%
remaining activity at 10 µM [32]: 34%
